# Laboratory results published in patent publication US11897918B2, “Compositions and methods to increase production” (priority 2014, dated 2024).
# Columns and labels:
# [1] = system: influenza H3N2 strain IVR-165 (A/Victoria/361/2011); assay type: cell-based
# [2] = system: A/Victoria/361/2011 (IVR-165) (high-expressing); assay: ambr15 mini-bioreactor and shake flask comparison, A strain; assay type: cell-based, influenza A H3N2; conditions: CDM and DM134 media, shake flasks and 15 ml bioreactors
# HEK293 Freestyle cells = assay: Recombinant protein expression in HEK293 Freestyle cells; assay type: cell-based; conditions: 70 nM; proteins with a yield of about ≤4 mg/L
# Protocol: To further evaluate general utility of the compounds identified in the HA yield studies, one of the lead compounds, BYF589, was tested on recombinant protein expression using heterologous cells. In particular, proteins that had been previously found to be difficult to express in HEK293 cells were included, which are referred to as “low yielders.” In a typical optimized system, low yielders are defined as having a yield of 5 mg/L or less. About 20 constructs of target proteins with typical yields of between 2-10 mg/L were selected for the experiments. They are secreted mammalian proteins, which are truncated versions of full length counterparts. Each construct (in a variant of the pRS5a vector) contained at least one tag (e.g., at least a C-terminal FlagHis tag—in addition, many are fused N- or C-terminally to mouse IgG1 Fc). Roughly equal numbers of each tag type were selected to reduce bias.
# All targets with yields <1 mg/L or >10 mg/L were removed. Next, targets were sorted by tag type. Finally, if it looked like a particular molecular weight range was heavily represented, a few “duplicates” were culled. Then, to select samples, first 6-7 from each tag type were included without additional selection criteria. Resulting target list is reproduced below.
# The BYF589 compound was dissolved in DMSO to finally provide a 70 μM working stock (1000×). […]
# IP10 and IFNB1 = assay type: cell-based
smiles,measurement,setting,value
"O=C(O)C[C@H](O)C[C@H](O)/C=C/c1c(C2CC2)nc2ccccc2c1-c1ccc(F)cc1 [Compound G, (3R, 5S, 6E)-7-[2-cyclopropyl-4-(4-fluorophenyl)-quinolin-3-yl)-3,5-dihydroxyhept-6-enoic acid]",HA yield before the decrease (earlier addition),[1],about 20 μg/ml
same,"HA yield, compound added 2 hours post infection",[1],about 5 μg/ml
same,"HA yield enhancement, high-expressing A strain",[2],but not a high-expressing H3N2 strain
same,increase in recombinant protein yield,HEK293 Freestyle cells,≥ 1.5 fold
same,delay time of gene induction (measured at peak),"IP10 and IFNB1; both genes, versus absence of compound",at least two hours
same,induction of IFNb and IP10,"IP10 and IFNB1; virus-infected MDCK cells, preliminary qRT-PCR data",delayed/suppressed induction
